pIC50: −log10 of the molar value. Values after ≈ are worked out from the molar mass of the structure shown.
Key:
Type in all cases: cell-based
[1] = system: tumor cell lines in the NCI 60 cell panel; test: cytotoxic effect in the NCI 60 cell panel
From the text: (§1) Thus, the invention provides a method of treating a cancer patient by administering to the patient a compound of the invention in an amount sufficient to reduce or inhibit proliferation of cancer cells in the patient.

[2] = system: breast cancer cells T-47D; test: in vitro cytotoxicity at the National Cancer Institute (NCI 60 cell panel), breast cancer T-47D; conditions: Homo sapiens, T47D; breast cancer T-47D (printed T-470); inhibition of cell proliferation by 50%
From the text: as §1

melanoma MALME-3M cells = test: in vitro cytotoxicity at the National Cancer Institute (NCI 60 cell panel), melanoma; conditions: Homo sapiens, inhibition of cell proliferation by 50%
From the text: as §1

[3] = system: breast cancer cells βT-549; test: in vitro cytotoxicity at the National Cancer Institute (NCI 60 cell panel), breast cancer βT-549; conditions: inhibition of cell proliferation by 50%
From the text: as §1

human colon HCT116 cells = test: HCT-116 cytotoxicity assay; conditions: human colon HCT-116 cells; concentration required to inhibit cell proliferation by 50% vs untreated cells
From the text: as §1

## CC1(C)C=Cc2c(ccc3c2[N+]([O-])=C2C3=CC34NC(=O)C5(CCCN5C3=O)CC4C2(C)C)O1 (stereo not drawn) [Avrainvillamide]
[1]; MALME-3M, βT-549 and T-470
  selective in vitro cytotoxicity towards melanoma and breast cancers: significant selective in vitro cytotoxicity
[1]; NCI 60 cell panel
  cytotoxic effect against a variety of tumor cell lines: dose dependent cytotoxic effect
[2]
  pIC50: 7.14
Melanoma MALME-3M cells
  pIC50: 7.28
[3]
  pIC50: 7.47
Human colon HCT116 cells
  IC50: 2 µg/mL (≈ 4.49 µM)

— patent publication US6066635A, “Avrainvillamide, a cytotoxic marine natural product, and derivatives thereof” (University of California, San Diego, priority 1999, dated 2000)
